# Data from ChEMBL document CHEMBL1629481, “A regio- and stereoselective 1,3-dipolar cycloaddition for the synthesis of novel spiro-pyrrolothiazolyloxindoles and their antitubercular evaluation” (2010).
# Test system: Mycobacterium tuberculosis
# Experiment: Antimycobacterial activity against Mycobacterium tuberculosis H37Rv by agar dilution method
# Assay type: functional
row,Structure (SMILES),MIC [µg/mL]
1,COc1ccc([C@H]2[C@@H]3CSCN3[C@@]3(C(=O)Nc4ccc(Cl)cc43)[C@@]23Cc2ccccc2C3=O)cc1,> 49.7
2,O=C1Nc2ccc([N+](=O)[O-])cc2[C@]12N1CSC[C@H]1[C@H](c1ccc(Br)cc1)[C@]21Cc2ccccc2C1=O,11.1
3,Cc1ccccc1[C@H]1[C@@H]2CSCN2[C@@]2(C(=O)Nc3ccccc32)[C@@]12Cc1ccccc1C2=O,> 55.2
4,O=C1Nc2ccc(Cl)cc2[C@]12N1CSC[C@H]1[C@H](c1ccc([N+](=O)[O-])cc1)[C@]21Cc2ccccc2C1=O,12.1
5,O=C1Nc2ccccc2[C@]12N1CSC[C@H]1[C@H](c1ccc(F)cc1)[C@]21Cc2ccccc2C1=O,13.7
6,Cc1ccc([C@H]2[C@@H]3CSCN3[C@@]3(C(=O)Nc4ccc([N+](=O)[O-])cc43)[C@@]23Cc2ccccc2C3=O)cc1,25.1
7,O=C1Nc2ccccc2[C@]12N1CSC[C@H]1[C@H](c1cccs1)[C@]21Cc2ccccc2C1=O,56.2
8,NNC(=O)c1ccncc1 [ISONIAZID],0.4
9,O=C1Nc2ccc(Cl)cc2[C@]12N1CSC[C@H]1[C@H](c1cccs1)[C@]21Cc2ccccc2C1=O,52.2
10,CO[C@H]1/C=C/O[C@@]2(C)Oc3c(C)c(O)c4c(O)c(c(/C=N/N5CCN(C)CC5)c(O)c4c3C2=O)NC(=O)/C(C)=C\C=C\[C@H](C)[C@H](O)[C@@H](C)[C@@H](O)[C@@H](C)[C@H](OC(C)=O)[C@@H]1C [RIFAMPIN],0.1
11,Cc1ccc([C@H]2[C@@H]3CSCN3[C@@]3(C(=O)Nc4ccccc43)[C@@]23Cc2ccccc2C3=O)cc1,> 55.2
12,O=C1Nc2ccccc2[C@]12N1CSC[C@H]1[C@H](c1ccc([N+](=O)[O-])cc1)[C@]21Cc2ccccc2C1=O,12.9
13,O=C1Nc2ccccc2[C@]12N1CSC[C@H]1[C@H](c1ccccc1Cl)[C@]21Cc2ccccc2C1=O,26.4
14,O=C1Nc2ccccc2[C@]12N1CSC[C@H]1[C@H](c1cccc(Cl)c1Cl)[C@]21Cc2ccccc2C1=O,12.3
15,O=C1Nc2ccc(Cl)cc2[C@]12N1CSC[C@H]1[C@H](c1ccc(F)cc1)[C@]21Cc2ccccc2C1=O,12.7
16,O=C1Nc2ccc(Cl)cc2[C@]12N1CSC[C@H]1[C@H](c1ccc(Cl)cc1)[C@]21Cc2ccccc2C1=O,24.6

row,Structure (SMILES),MIC [µg/mL]
1,O=C1Nc2ccccc2[C@]12N1CSC[C@H]1[C@H](c1ccc(Br)cc1)[C@]21Cc2ccccc2C1=O,24.2
2,O=C1Nc2ccc(Cl)cc2[C@]12N1CSC[C@H]1[C@H](c1cccc(Cl)c1Cl)[C@]21Cc2ccccc2C1=O,5.8
3,O=C1Nc2ccc([N+](=O)[O-])cc2[C@]12N1CSC[C@H]1[C@H](c1ccc([N+](=O)[O-])cc1)[C@]21Cc2ccccc2C1=O,5.9
4,O=C1Nc2ccc([N+](=O)[O-])cc2[C@]12N1CSC[C@H]1[C@H](c1ccc(Cl)cc1)[C@]21Cc2ccccc2C1=O,24.1
5,O=C1Nc2ccc([N+](=O)[O-])cc2[C@]12N1CSC[C@H]1[C@H](c1ccccc1Cl)[C@]21Cc2ccccc2C1=O,12.1
6,CC[C@@H](CO)NCCN[C@@H](CC)CO [ETHAMBUTOL],7.6
7,COc1ccc([C@H]2[C@@H]3CSCN3[C@@]3(C(=O)Nc4ccc([N+](=O)[O-])cc43)[C@@]23Cc2ccccc2C3=O)cc1,24.3
8,Cc1ccccc1[C@H]1[C@@H]2CSCN2[C@@]2(C(=O)Nc3ccc(Cl)cc32)[C@@]12Cc1ccccc1C2=O,25.7
9,COc1ccc([C@H]2[C@@H]3CSCN3[C@@]3(C(=O)Nc4ccccc43)[C@@]23Cc2ccccc2C3=O)cc1,> 53.4
10,O=C1Nc2ccc([N+](=O)[O-])cc2[C@]12N1CSC[C@H]1[C@H](c1cccc(Cl)c1Cl)[C@]21Cc2ccccc2C1=O,2.8
11,O=C1Nc2ccc(Cl)cc2[C@]12N1CSC[C@H]1[C@H](c1ccccc1Cl)[C@]21Cc2ccccc2C1=O,12.3
12,O=C1Nc2ccc([N+](=O)[O-])cc2[C@]12N1CSC[C@H]1[C@H](c1ccc(F)cc1)[C@]21Cc2ccccc2C1=O,3.1
13,Cc1ccccc1[C@H]1[C@@H]2CSCN2[C@@]2(C(=O)Nc3ccc([N+](=O)[O-])cc32)[C@@]12Cc1ccccc1C2=O,25.1
14,Cc1ccc([C@H]2[C@@H]3CSCN3[C@@]3(C(=O)Nc4ccc(Cl)cc43)[C@@]23Cc2ccccc2C3=O)cc1,51.3
15,O=C1Nc2ccccc2[C@]12N1CSC[C@H]1[C@H](c1ccc(Cl)cc1)[C@]21Cc2ccccc2C1=O,52.9
16,O=C1Nc2ccc(Cl)cc2[C@]12N1CSC[C@H]1[C@H](c1ccc(Br)cc1)[C@]21Cc2ccccc2C1=O,11.3
